The target in experiment [1] is T1, CDK7AS (mutated version of CDK7) in HCT116K7AS cells (Homo sapiens, UniProt P50613, D92E/F91G).
T1 construct: These cells express only a mutated version of CDK7 (CDK7AS); endogenous in cells; host or cells: HCT116K7AS cells transduced with the Avi-tagged cyclin D3/CDK4 reporter (HCT116K7AS-V26)
Description: Rb kinase activity of streptavidin-immobilized Avi-tagged cyclin D3/CDK4 fusion from HCT116K7AS cells treated with serum and CDK7AS inhibitor. In kind it is cell-based. As for the experimental part:
In order to verify if transgenes expressed in HCT116K7AS cells after transduction with the vectors described in Example 8 could be immobilized on streptavidin-coated sepharose beads and were enzymatically active, the HCT116K7AS cells expressing the cyclin D3/CDK4 fusion protein described in the Example 14 were cultivated in 6 cm Petri dishes with 10 ml DMEM medium supplemented with 10% serum, Sodium pyruvate (1 mM), Penicillin (50 U/ml) and Streptomycin (50 μg/ml). These cells express only a mutated version of CDK7 (CDK7AS) inhibitable by bulky ATP analogs such as 1-NMPP1 (Santa Cruz). The cells were rendered quiescent by incubating them for three days in DMEM without serum, but supplemented with biotin (0.1 mM), Sodium pyruvate (1 mM), Penicillin (50 U/ml) and Streptomycin (50 μg/ml). Cells were stimulated to proliferate by adding 10% serum for 5 or 16 hours in the continuous presence of biotin (0.1 mM). As indicated, vehicle (DMSO) or CDK7AS inhibitor (1-NMPP1) were added together with serum for the same time or for an additional pulse of 1 hour. […]
The pRb kinase assay was performed on the cellular extract bound to the streptavidin-coated sepharose beads as described previously (Coulonval et al., supra). […] The phosphorylation on T826 of the pRb fragment was detected using a phospho-specific anti-pRb (T826) antibody (Epitomics). […]

Experiment [2] addresses biotinylated Avi-tagged luciferase/EGFP fusion (pWFAvi_IBc_luc) [luciferase: P08659]. Description: pull-down from HEK293T extract on streptavidin-coated sepharose beads; bound luciferase activity relative to bound plus unbound.
Another experiment relates to MCF7 cells. Description: BrdU incorporation (DNA synthesis) in quiescent MCF7 cells. Type of experiment: cell-based. Conditions: fulvestrant 10 nM during the last 24 h of the incubation without serum and insulin, results not shown. The method, then: MCF7 cells (ATCC HTB-22) were routinely cultivated in Dulbecco's Modified Eagle Medium (DMEM) comprising 5% serum, 6 ng/ml insulin, 0.1 mM non essential amino acids (NEAA, GIBCO), 1 mM Sodium pyruvate, 50 U/ml Penicillin and 50 μg/ml Streptomycin. The cells were rendered quiescent by incubating them for three days in phenol-free DMEM without serum and insulin, but supplemented with 0.1 mM NEAA (GIBCO), 1 mM Sodium pyruvate, 50 U/ml Penicillin and 50 μg/ml Streptomycin. Cells were kept quiescent (control) or were stimulated to proliferate by adding 5% serum and 6 ng/ml insulin in the culture medium. Samples were harvested 2 h, 4 h, 6 h, 8 h, 10 h, 12 h, 16 h, and 24 h after stimulation of MCF7 cells. Bromodeoxyuridine (BrdU, 10^−4 M) and fluorodeoxyuridine (2.10^−6 M) were added to the cells for the last 24 h of culture. BrdU staining was used to record DNA synthesis. […] DNA synthesis resumed 16 h after stimulation by serum and insulin (FIG. 5, dashed line).
When fulvestrant (10 nM) was added to the culture to block estrogen receptor action during the last 24 h of the incubation without serum and insulin, the proportion of cells starting DNA synthesis dropped to less than 2% (results not shown).
For orientation: Incorporation of labelled thymidine or its analogues reports DNA synthesis.

Bounds are passed on as bounds.

T1 sequence (P50613 whole entry F91G/D92E): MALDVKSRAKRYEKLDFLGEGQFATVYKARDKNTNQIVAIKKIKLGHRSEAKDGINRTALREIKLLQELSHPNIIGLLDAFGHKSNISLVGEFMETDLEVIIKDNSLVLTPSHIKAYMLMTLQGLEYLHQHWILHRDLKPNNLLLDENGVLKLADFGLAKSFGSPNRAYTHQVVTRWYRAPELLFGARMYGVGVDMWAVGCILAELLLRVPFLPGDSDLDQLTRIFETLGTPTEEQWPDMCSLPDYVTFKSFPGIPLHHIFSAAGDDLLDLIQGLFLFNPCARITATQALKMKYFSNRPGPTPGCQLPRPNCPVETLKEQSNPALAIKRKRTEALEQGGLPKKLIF
T1 sequence (P51946 whole entry partner): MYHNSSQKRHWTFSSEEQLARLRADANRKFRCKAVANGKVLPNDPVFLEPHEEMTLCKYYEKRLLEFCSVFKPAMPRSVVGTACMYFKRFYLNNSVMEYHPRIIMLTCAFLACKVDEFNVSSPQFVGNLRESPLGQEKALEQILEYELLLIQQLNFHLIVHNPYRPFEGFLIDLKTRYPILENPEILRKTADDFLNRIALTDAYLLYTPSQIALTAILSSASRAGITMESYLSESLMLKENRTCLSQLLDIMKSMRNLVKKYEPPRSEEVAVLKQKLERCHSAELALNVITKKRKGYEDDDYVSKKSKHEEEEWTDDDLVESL
T1 sequence (P51948 whole entry partner): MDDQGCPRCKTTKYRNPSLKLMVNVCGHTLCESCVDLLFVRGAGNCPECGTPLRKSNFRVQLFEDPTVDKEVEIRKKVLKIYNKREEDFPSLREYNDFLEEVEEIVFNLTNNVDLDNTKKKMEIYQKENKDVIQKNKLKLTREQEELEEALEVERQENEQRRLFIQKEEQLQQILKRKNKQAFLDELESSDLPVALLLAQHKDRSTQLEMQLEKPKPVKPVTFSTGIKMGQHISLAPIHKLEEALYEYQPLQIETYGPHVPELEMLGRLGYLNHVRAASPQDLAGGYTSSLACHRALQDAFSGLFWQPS

On to `CC(C)(C)n1nc(Cc2cccc3ccccc23)c2c(N)ncnc21` [1-NMPP1], for which the “serum stimulation of Rb kinase activity of the biotinylatable Cyclin D3/CDK4 fusion” value in experiment [1] (inhibitor added during the last hour of 17 hours serum stimulation, HCT116K7AS (FIG. 12)) is recorded as “severely impaired”. In experiment [1] (inhibitor present together with serum for 5 hours, HCT116K7AS, P-Rb T826 immunoblot (FIG. 12)), the “serum induction of Rb kinase activity of the biotinylatable Cyclin D3/CDK4 fusion” value was “prevented”.

In the case of “streptavidin (from UniProt P22629 37-163)”, the percent of the total luciferase activity bound in experiment [2] was < 40%.

In the case of `C[C@]12CC[C@@H]3c4ccc(O)cc4C[C@@H](CCCCCCCCC[S+]([O-])CCCC(F)(F)C(F)(F)F)[C@H]3[C@@H]1CC[C@@H]2O` (stereo partly shown) [fulvestrant], in the experiment with MCF7 cells, the “proportion of cells starting DNA synthesis” value is given as “less than 2%”.

The values are drawn from patent publication US20150299764A1, “IMMOBILISED CYCLIN-DEPENDENT KINASE 4 FUSION PROTEINS AND USES THEREOF” (UNIVERSITE LIBRE DE BRUXELLES, priority 2012, published 2015).
